Read-outs that look alike come from different tables or passages of the source.
Details: rcm bond

N#Cc1ncc2nc1OCC=CCOc1ccc(Cl)cc1NC(=O)N2
ring closure, isolated yield (from C=CCOc1ccc(Cl)cc1NC(=O)Nc1cnc(C#N)c(OCC=C)n1, 14-membered ring, Grubbs II (15 mol%), CH2Cl2, 1.8 mM, 40.0 °C, 16.0 h): 54%

2-oxo-18-[3-(tetrahydro-2H-pyran-2-yloxy)propyl]-2,3,11,14-tetrahydro-1H,10H-8,4-epiazeno-9,15,1,3,6-benzodioxatriazacycloheptadecine-7-carbonitrile
ring closure, isolated yield (15-membered ring): 37%

Cc1cc(Cl)c2c(c1)NC(=O)Nc1cnc(C#N)c(n1)OCCC=CCO2
ring closure, isolated yield (from C=CCCOc1nc(NC(=O)Nc2cc(C)cc(Br)c2OCC=C)cnc1C#N, 15-membered ring, Grubbs II (10 mol%), CH2Cl2, 2.11 mM, 40.0 °C, 16.0 h): 72%

O=C1Nc2cncc(n2)OCCC=CCOc2ccc(Cl)cc2N1
ring closure, isolated yield (from C=CCCOc1cncc(NC(=O)Nc2cc(Cl)ccc2OCC=C)n1, 15-membered ring, Grubbs II (15 mol%), CH2Cl2, 2.4 mM, 50.0 °C, 16.0 h): 40%

C[Si](C)(C)CCOCOc1cc2c(cc1Cl)NC(=O)Nc1cnc(C#N)c(n1)OCCC=CCO2
ring closure, isolated yield (from C=CCCOc1nc(NC(=O)Nc2cc(Cl)c(OCOCC[Si](C)(C)C)cc2OCC=C)cnc1C#N, 15-membered ring, Grubbs II (10 mol%), DMSO workup, CH2Cl2, 1.5 mM, 25.0 °C, 16.0 h): 92%

N#Cc1ncc2nc1OCCC=CCOc1c(F)cc(Cl)cc1NC(=O)N2
ring closure, isolated yield (from C=CCCOc1nc(NC(=O)Nc2cc(Br)cc(F)c2OCC=C)cnc1C#N, 15-membered ring, Grubbs II (10 mol%), CH2Cl2, 1.47 mM, 25.0 °C, 6.0 h): 64%

CC1C=CCCOc2nc(cnc2C#N)NC(=O)Nc2cc(Cl)ccc2O1 (stereo not drawn)
ring closure, isolated yield (from C=CCCOc1nc(NC(=O)Nc2cc(Cl)ccc2OC(C)C=C)cnc1C#N, 15-membered ring, Grubbs II (10 mol%), CH2Cl2, 1.97 mM, 25.0 °C, 36.0 h): 63%

N#Cc1ncc2nc1OCCC=CCOc1cc(N)c(Cl)cc1NC(=O)N2
ring closure, isolated yield (from C=CCCOc1nc(NC(=O)Nc2cc(Cl)c(N)cc2OCC=C)cnc1C#N, 15-membered ring, Grubbs II (10 mol%), DMSO workup, CH2Cl2, 1.96 mM, 25.0 °C, 16.0 h): 77%

N#Cc1ncc2nc1OCCC=CCOc1ncc(Cl)cc1NC(=O)N2
ring closure, isolated yield (from C=CCCOc1nc(NC(=O)Nc2cc(Cl)cnc2OCC=C)cnc1C#N, 15-membered ring, Grubbs II (15 mol%), CH2Cl2, 2.75 mM, 40.0 °C, 16.0 h): 36%
